Experimental data reported in patent US9630947B2, “Therapeutic compounds and related methods of use” (OTSUKA PHARMACEUTICAL CO., LTD., priority 2009, dated 2017).
pIC50: −log10 of the molar value.

Target: T1, purified STEP46 enzyme (Homo sapiens, UniProt P54829)
T1 sequence (P54829 1-565): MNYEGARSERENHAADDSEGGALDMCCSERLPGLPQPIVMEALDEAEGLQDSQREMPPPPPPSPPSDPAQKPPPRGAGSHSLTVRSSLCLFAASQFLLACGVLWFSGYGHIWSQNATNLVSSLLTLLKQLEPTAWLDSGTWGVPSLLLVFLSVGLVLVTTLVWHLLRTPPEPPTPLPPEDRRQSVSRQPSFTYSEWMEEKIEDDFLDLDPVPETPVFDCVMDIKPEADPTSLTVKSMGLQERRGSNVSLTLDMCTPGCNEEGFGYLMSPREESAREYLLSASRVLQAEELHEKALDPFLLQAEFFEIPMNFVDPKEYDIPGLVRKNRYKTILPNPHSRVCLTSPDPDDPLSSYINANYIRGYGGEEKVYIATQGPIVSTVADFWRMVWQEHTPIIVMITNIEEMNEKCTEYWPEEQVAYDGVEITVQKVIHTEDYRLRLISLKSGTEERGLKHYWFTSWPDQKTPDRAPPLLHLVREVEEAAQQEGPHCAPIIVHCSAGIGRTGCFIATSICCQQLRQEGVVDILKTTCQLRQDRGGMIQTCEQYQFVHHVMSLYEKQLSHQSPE
Assay: STEP46 biochemical assay (DiFMUP fluorescence phosphatase assay)
Settings: DiFMUP 10 μM, read-out: STEP IC50
Protocol: STEP46 Biochemical Assays
Serial dilutions of compounds were performed in 100% DMSO and 1 uL of compounds were dispensed into 384-well black polystyrene plates (Corning, NY). Compounds were incubated with 24 uL of buffer containing 50 mM Hepes, 1 mM DTT, 0.02% Brij35, 1 ng/well purified STEP46 enzyme for 30 min at room temperature. The reaction was initiated by addition of 25 uL of DiFMUP (6, 8-difluoro-4-methylumbelliferyl phosphate) (InVitrogen, CA) with a final concentration of 10 μM and incubated at 27° C. for 90 min. Final DMSO concentration is 2%. Plates were read with florescence intensity at excitation/emission of 360/460 nm using a PheraStar plate reader (BMG Labtech, NC).
Data were expressed as percentage (%) inhibition of enzyme activity. 0% inhibition is defined as the RFUs (relative fluorescence units) in the absence of compounds and 100% inhibition is defined as RFUs in the absence of STEP46 enzyme. IC50 values of compounds with inhibitory activity against STEP46 were determined by GraphPad Prism (version 4.03) using four parameter logistic equation. Some compounds act as activators. For compounds showing STEP46 enzymatic activation, data are represented as percentage of inhibition but with negative values at three representative concentrations (25, 50 and 100 uM).

Structure (SMILES) | pIC50
COc1ccc2nc(-c3cccnc3)nc(Nc3nc(-c4ccc(C#N)cc4)cs3)c2c1 [Compound 448] | > 6.00
Fc1ccc(-c2ccc3nc(-c4cccnc4)nc(Nc4ccc(F)c(Cl)c4)c3c2)c(F)c1 [Compound 671] | 5.00 to 6.00
Fc1ccc(Nc2nc(-c3cnccn3)nc3ccccc23)cc1Cl [Compound 1219] | 5.00 to 6.00
COc1ccc2nc(-c3cccnc3)nc(Nc3nc(CC(C)C)cs3)c2c1 [Compound 460] | 5.00 to 6.00
Fc1cc(F)cc(-c2ccc3c(Nc4ccc(F)c(Cl)c4)nc(-c4cccnc4)nc3c2)c1 [Compound 675] | > 6.00
Fc1ccccc1-c1ccc2c(NCc3ccccn3)nc(-c3cccnc3)nc2c1 [Compound 1425] | 5.00 to 6.00
CCOc1ccc2nc(-c3cccnc3)nc(Nc3nc(-c4ccc(F)cc4F)cs3)c2c1 [Compound 472] | 5.00 to 6.00
CNc1nc(-c2cccnc2)nc2cc(-c3cccc(C)c3)ccc12 [Compound 1361] | < 5.00
COc1ccc2nc(-c3cccnc3)nc(Nc3nc4ccccc4n3C)c2c1 [Compound 407] | 5.00 to 6.00
COc1ccc2nc(-c3cccnc3)nc(Nc3nc(-c4cccc(OC(F)(F)F)c4)cs3)c2c1 [Compound 455] | 5.00 to 6.00
COc1ccc2nc(-c3cnccn3)nc(Nc3ccc(Cl)c(Cl)c3)c2c1 [Compound 1234] | 5.00 to 6.00
CNc1nc(-c2cccnc2)nc2cc(-c3ccc(OC)cc3)c(C)cc12 [Compound 1413] | 5.00 to 6.00
COc1ccc2nc(-c3cccnc3)nc(Nc3nc(-c4ccccc4C)cs3)c2c1 [Compound 444] | > 6.00
CNc1nc(-c2cccnc2)nc2cc(-c3ccc(F)c(F)c3)ccc12 [Compound 1373] | 5.00 to 6.00
Fc1cccc(-c2ccc3nc(-c4cccnc4)nc(Nc4ccc(F)c(Cl)c4)c3c2)c1 [Compound 634] | 5.00 to 6.00
CNc1nc(-c2cccnc2)nc2ccc(-c3cccc(-c4ccccc4)c3)cc12 [Compound 1346] | 5.00 to 6.00
CNc1nc(-c2cccnc2)nc2c(C)cc(-c3ccc(OC)cc3)cc12 [Compound 1282] | 5.00 to 6.00
COc1cccc(-c2ccc3nc(-c4cccnc4)nc(Oc4ccc(F)c(F)c4)c3c2)c1 [Compound 392] | 5.00 to 6.00

Structure (SMILES) | pIC50
NC(=O)c1ccccc1Nc1nc(-c2cccnc2)nc2cc(-c3cc(F)ccc3F)ccc12 [Compound 706] | > 6.00
COc1ccc2nc(-c3cccnc3)nc(Nc3ccc4ncoc4c3)c2c1 [Compound 341] | 5.00 to 6.00
Cc1cccc2c(Nc3ccc(Cl)c(Cl)c3)nc(-c3cnccn3)nc12 [Compound 1178] | 5.00 to 6.00
COc1ccc2nc(-c3cccnc3)nc(Nc3cccc4cc[nH]c34)c2c1 [Compound 300] | < 5.00
Clc1cc(Cl)cc(Nc2nc(-c3cnccn3)nc3ccccc23)c1 [Compound 1222] | 5.00 to 6.00
Fc1ccc(-c2ccc3nc(-c4cccnc4)nc(Nc4ccc(F)c(Cl)c4)c3c2)cc1 [Compound 638] | 5.00 to 6.00
CCOc1ccc2nc(-c3cccnc3)nc(Nc3ccc4nonc4c3)c2c1 [Compound 334] | 5.00 to 6.00
NC(=O)c1ccccc1Nc1nc(-c2cccnc2)nc2cc(-c3ccc(F)c(F)c3)ccc12 [Compound 703] | > 6.00
COc1cccc(-c2ccc3nc(-c4cccnc4)nc(Oc4ccc(Cl)c(Cl)c4)c3c2)c1 [Compound 391] | 5.00 to 6.00
Fc1ccc(Nc2nc(-c3ccncn3)nc3ccccc23)cc1Cl [Compound 1206] | 5.00 to 6.00
CNc1nc(-c2cccnc2)nc2c(C)cc(-c3cccc(F)c3)cc12 [Compound 1280] | 5.00 to 6.00
Fc1ccc(Nc2nc(-c3cccnc3)nc3ccc(-c4ccc5c(c4)OCO5)cc23)cc1Cl [Compound 662] | > 6.00
O=[N+]([O-])c1ccccc1-c1ccc2nc(-c3cccnc3)nc(Nc3ccc(F)c(Cl)c3)c2c1 [Compound 640] | 5.00 to 6.00
FC(F)Oc1cccc(Nc2nc(-c3ccncn3)nc3ccccc23)c1 [Compound 1208] | < 5.00
Fc1ccc(Nc2nc(-c3cccnc3)nc3ccc(-c4ccsc4)cc23)cc1Cl [Compound 648] | 5.00 to 6.00
CNc1nc(-c2cccnc2)nc2cc(-c3cccc(F)c3)ccc12 [Compound 1359] | 5.00 to 6.00
CNc1nc(-c2cccnc2)nc2cc(-c3ccc(F)cc3F)ccc12 [Compound 1372] | 5.00 to 6.00
